# Test results: patent US20250099508A1, “SYSTEMS, CELL LINES AND METHODS OF PRODUCING AND USING THE SAME” (THE REGENTS OF THE UNIVERSITY OF CALIFORNIA, priority 2022, published 2025)
# Columns and labels:
# [1] = test system: stage 1 NOS1::GFP enteric ganglioids; assay: NO neuron induction in stage 1 enteric ganglioids measured by flow cytometry (NOS1::GFP); format: cell-based, human; details: for NO neuron induction / NO neuron proportions: RTK ligand treatment, stage 1 enteric ganglioids
# Excerpt: (§1) To evaluate the potential of hPSC-derived cultures to model human ENS development, we set out to define the mechanism of NO neuron specification in vitro. Searching for pathways that regulate NO neuron differentiation, we performed a high-throughput small molecule screen. Identifying distinct pathways and chemical modulators that promote NO neuron induction could provide insights on NO neuron development and offer a strategy for the derivation of NO neuron enriched ENS cultures. • To identify compounds that induce NO neuron differentiation, we treated enteric crestospheres with 1694 compounds in the Selleck inhibitor library™ and identified 12 hit compounds that increased the proportion of NOS1^+ neurons by at least eight folds (FIG. 6A, FIGS. S25A and B). FIG. S25 data not shown, but it describes that small molecule high-throughput screening identifies compounds that enrich NO neurons in hESC-derived ENS cultures. […] After clustering the predicted protein targets, common patterns emerged for a subset of compounds.
# To determine the mechanism by which PP121 induced NO neuron enrichment in ganglioids, we used a combination of pharmacological and genetic approaches. […] Our crestosphere snRNA-seq analysis confirmed the expression of PDGFRA, PDGFRB, ERBB2 and ERBB3 while the mRNA for VEGFRs were not detectable (FIG. 6L). We evaluated the induction efficiency of NO neurons in response to PDGF (PDGFR agonist), sunitinib (PDGFR and VEGFR antagonist), NRG1 (ERBBs agonist) and sapitinib (ERBBs antagonist) (FIG. 6M). […] To genetically confirm the role of PDGFR signaling in NO neuron induction, we used CRISPR-Cas9 to knock-out PDGFRA and PDGFRB in our enteric crestospheres and analyzed the percentage of NO neurons in stage 1 ganglioids. NO neurons were […] in both PDGFRA and PDGFRB knock-out cultures further confirming the PP121 mechanism of action (FIGS. 6O and P).
# [2] = test system: H9 hESC-derived enteric crestospheres (NOS1+ neurons); assay: High-throughput screening to identify compounds that enrich NO neurons; format: cell-based, human; details: 1694 compounds, 1 μM, D15-D20, NOS1 staining at day 40
# Excerpt: as §1
# Day 15 H9 hESC-derived enteric crestospheres were dissociated into single cells (accutase, Stemcell Technologies, 07920, 30 min, 37° C.), resuspended in ENC medium and were transferred into 384-well plates. Plates were incubated for 2 hours for cells to attach. […]
# VEGFRs = details: cited from earlier work
# EGFRs = details: cited from earlier work
# PDGFRs = details: cited from earlier work
# [3] = test system: stage 1 enteric ganglioids; assay: PP121 vs control gene expression correlation (snRNA-seq); format: cell-based, human
# Excerpt: To compare PP121 treated and untreated stage 1 enteric ganglioids in single cell resolution, we performed snRNA-seq and combined both datasets. […] FIG. S26 data not shown, but it describes PP121 treatment enriches NO neurons without affecting their overall cellular diversity.
# To compare the gene expression of control and PP121 treated cell types, neuronal subtypes and NO neuron subtypes, a subset dataset of each cell type and subtype annotation was first created. For each subset, the non-imputed average expression of all genes was then calculated for the control and PP121 treated cells using the “AverageExpression” function and natural log transformed for plotting. R^2 values comparing the control and PP121 natural log expression values were calculated from linear modeling using the “y ˜x” formula. cFOS expression screening
# mouse colon = assay: Ex vivo colonic motility assay (organ bath, GIMM); details: for CMMC intervals at the 75th percentile relative to the untreated condition: five consecutive 10-min acquisitions, mouse colon ex vivo
# [4] = test system: enteric ganglioid neurons; details: MEA neuronal firing measurements
# [5] = test system: hESC-derived stage 2 enteric ganglioid NO neurons; details: cFOS flow cytometry, cultures treated with epinephrine
# [6] = 6-min treatment, all five replicates
molecule,measurement,setting,value
PDGF,NO neuron induction / NO neuron proportions,[1],lower
Nc1ncnc2c1c(-c1cnc3[nH]ccc3c1)nn2C1CCCC1 [PP121],increase of the proportion of NOS1+ neurons relative to vehicle (DMSO),[2],highest % NOS1^+ fold increase in this subset of compounds
same,inhibitory activity on VEGFRs,VEGFRs,known inhibitory activity
same,inhibitory activity on EGFRs,EGFRs,known inhibitory activity
same,inhibitory activity on PDGFRs,PDGFRs,known inhibitory activity
same,NOS1::GFP induction efficiency by treatment window,"[1]; five-day treatment at various time points, GFP signal in stage 1 ganglioids",highest induction efficiency for cells treated during day 15-20
same,"NO neuron induction efficiency, dose dependence",[1]; flow cytometry,dose-dependent effect
same,abundance of neuronal subtypes,"[3]; merged control and PP121 treated neurons, snRNA-seq",enriched cultures for neuronal subtypes EN D and H
same,abundance of nitrergic neuron subtypes,[3]; merged control and PP121 treated nitrergic neurons,enrichment for Nitrergic B
O=C1CCc2ccc(OCCCCN3CCN(c4cccc(Cl)c4Cl)CC3)cc2N1 [aripiprazole],CMMC intervals at the 75th percentile relative to the untreated condition,mouse colon,promising effects on lowering CMMC intervals
Cc1cccc([C@H](C)c2cnc[nH]2)c1C [dexmedetomidine],average duration of LCEs,mouse colon; [6],increasing trend in their average duration
same,total number of longitudinal contractile events (LCEs),mouse colon; [6],decrease in the total number of LCEs
same,effects on LCEs after the drug removal,mouse colon; Krebs wash after drug,reversed after the drug removal
same,effects on LCEs with L-NAME co-treatment,mouse colon; L-NAME co-treatment,blocked by L-NAME co-treatment
same,effect on CMMC intervals with simultaneous L-NAME,mouse colon; dexmedetomidine+L-NAME simultaneously,absent
same,CMMC intervals at the 75th percentile relative to the untreated condition,mouse colon,promising effects on lowering CMMC intervals
same,CMMC intervals,"mouse colon; sequential 6-min acquisitions, five sample pairs, drug alone",decreased CMMC intervals in four out of five colon samples
same,slow waves (SW),mouse colon; sequential drug treatment,not affected
O=C1CCC[C@@H]2[C@H]3CCCN4CCC[C@@H](CN12)[C@@H]34 [matrine],CMMC intervals at the 75th percentile relative to the untreated condition,mouse colon,promising effects on lowering CMMC intervals
CNC(=O)CN1CCC(Oc2cc3c(Nc4cccc(Cl)c4F)ncnc3cc2OC)CC1 [sapitinib],NO neuron induction / NO neuron proportions,[1],no significant effect
Cc1cccc(C#Cc2ccccc2)n1 [MPEP],CMMC intervals at the 75th percentile relative to the untreated condition,mouse colon,promising effects on lowering CMMC intervals
"CNC[C@H](O)c1ccc(O)c(O)c1 [Epinephrine, epinephrine]",electrical firing of ganglioid neurons,[4],increased electrical firing
same,neuronal cFOS expression,[5],induced neuronal cFOS expression
